# Laboratory results: patent US20260297081A1, “COMPOUNDS AND METHODS OF TREATING CANCERS” (Cullgen Inc., priority 2023, published 2026)
# Test system: MCF7 cells
# Test: Anti-proliferation (viability) of MCF7 cells (Table 7, FIG. 2B)
# Type: cell-based
# Details: Homo sapiens, MCF7, MCF7 cells, 3-6 days, 10-point serial dilution; read-out: GI IC50 in MCF-7
row,IC50 [nM],Structure (SMILES)
1,< 50,"CC(=O)c1c(C)c2cnc(Nc3ccc(N4CCN(C(C)CC(=O)N5CCC(Nc6nc(NC(C)C)ccc6C(=O)Nc6ccc(N(C)C)nn6)C5)CC4)cn3)nc2n(C2CCCC2)c1=O (centres unmarked) [CPD-370, 2-((1-(3-(4-(6-((6-acetyl-8-cyclopentyl-5-methyl-7-oxo-7,8-dihydropyrido[2,3-d]pyrimidin-2-yl)amino)pyridin-3-yl)piperazin-1-yl)butanoyl)pyrrolidin-3-yl)amino)-N-(6-(dimethylamino)pyridazin-3-yl)-6-(isopropylamino)nicotinamide]"
2,> 100,"CC(=O)c1c(C)c2cnc(Nc3ccc(N4CCN(C5(C(=O)NC6CC7(C6)CC(Nc6nc(NC(C)C)ccc6C(=O)Nc6cc(C)on6)C7)CC5)CC4)cn3)nc2n(C2CCCC2)c1=O (centres unmarked) [CPD-371, 2-((6-(1-(4-(6-((6-acetyl-8-cyclopentyl-5-methyl-7-oxo-7,8-dihydropyrido[2,3-d]pyrimidin-2-yl)amino)pyridin-3-yl)piperazin-1-yl)cyclopropane-1-carboxamido)spiro[3.3]heptan-2-yl)amino)-6-(isopropylamino)-N-(5-methylisoxazol-3-yl)nicotinamide]"
3,> 100,"CC(=O)c1c(C)c2cnc(Nc3ccc(N4CCC(NCC(=O)N5CCC(Nc6nc(NC(C)C)ccc6C(=O)Nc6ccc(N(C)C)nn6)C5)CC4)cn3)nc2n(C2CCCC2)c1=O (centres unmarked) [CPD-372, 2-((1-((1-(6-((6-acetyl-8-cyclopentyl-5-methyl-7-oxo-7,8-dihydropyrido[2,3-d]pyrimidin-2-yl)amino)pyridin-3-yl)piperidin-4-yl)glycyl)pyrrolidin-3-yl)amino)-N-(6-(dimethylamino)pyridazin-3-yl)-6-(isopropylamino)nicotinamide]"
4,> 100,"CNc1ccc(C(=O)Nc2ccc(N(C)C)nn2)c(NC2CC3(C2)CC(C(=O)NC2CC4(CCN(c5ccc(Nc6ncc7c(C)c(C(C)=O)c(=O)n(C8CCCC8)c7n6)nc5)CC4)C2)C3)n1 (centres unmarked) [CPD-374, 2-((6-((7-(6-((6-acetyl-8-cyclopentyl-5-methyl-7-oxo-7,8-dihydropyrido[2,3-d]pyrimidin-2-yl)amino)pyridin-3-yl)-7-azaspiro[3.5]nonan-2-yl)carbamoyl)spiro[3.3]heptan-2-yl)amino)-N-(6-(dimethylamino)pyridazin-3-yl)-6-(methylamino)nicotinamide]"
5,> 100,"CNc1ccc(C(=O)Nc2ccc(N(C)C)nn2)c(NC2CC(C(=O)NC3CC4(CCN(c5ccc(Nc6ncc7c(C)c(C(C)=O)c(=O)n(C8CCCC8)c7n6)nc5)CC4)C3)C2)n1 (centres unmarked) [CPD-375, 2-((3-((7-(6-((6-acetyl-8-cyclopentyl-5-methyl-7-oxo-7,8-dihydropyrido[2,3-d]pyrimidin-2-yl)amino)pyridin-3-yl)-7-azaspiro[3.5]nonan-2-yl)carbamoyl)cyclobutyl)amino)-N-(6-(dimethylamino)pyridazin-3-yl)-6-(methylamino)nicotinamide]"
6,> 100,"CNc1ccc(C(=O)Nc2ccc(N(C)C)nn2)c(NC2CC3(C2)CC(C(=O)N2CC(C4CCN(c5ccc(Nc6ncc7c(C)c(C(C)=O)c(=O)n(C8CCCC8)c7n6)nc5)CC4)C2)C3)n1 (centres unmarked) [CPD-376, 2-((6-(3-(1-(6-((6-acetyl-8-cyclopentyl-5-methyl-7-oxo-7,8-dihydropyrido[2,3-d]pyrimidin-2-yl)amino)pyridin-3-yl)piperidin-4-yl)azetidine-1-carbonyl)spiro[3.3]heptan-2-yl)amino)-N-(6-(dimethylamino)pyridazin-3-yl)-6-(methylamino)nicotinamide]"
7,50 to 100,"CC(=O)c1c(C)c2cnc(Nc3ccc(N4CCN(CC(=O)NC(C)C5CC(Nc6nc(NC(C)C)ccc6C(=O)Nc6cc(C)on6)C5)CC4)cn3)nc2n(C2CCCC2)c1=O (centres unmarked) [CPD-377, 2-((3-(1-(2-(4-(6-((6-acetyl-8-cyclopentyl-5-methyl-7-oxo-7,8-dihydropyrido[2,3-d]pyrimidin-2-yl)amino)pyridin-3-yl)piperazin-1-yl)acetamido)ethyl)cyclobutyl)amino)-6-(isopropylamino)-N-(5-methylisoxazol-3-yl)nicotinamide]"
8,> 100,"[2H]C([2H])([2H])Nc1ccc(C(=O)Nc2ccc(N(C)C)nn2)c(NC2CC3(C2)CC(C(=O)N2CC4(CCN(c5ccc(Nc6ncc7c(C)c(C(C)=O)c(=O)n(C8CCCC8)c7n6)nc5)C4)C2)C3)n1 (centres unmarked) [CPD-378, 2-((6-(6-(6-((6-acetyl-8-cyclopentyl-5-methyl-7-oxo-7,8-dihydropyrido[2,3-d]pyrimidin-2-yl)amino)pyridin-3-yl)-2,6-diazaspiro[3.4]octane-2-carbonyl)spiro[3.3]heptan-2-yl)amino)-N-(6-(dimethylamino)pyridazin-3-yl)-6-((methyl-d3)amino)nicotinamide]"
9,> 100,"[2H]C([2H])([2H])Nc1ccc(C(=O)Nc2ccc(N(C)C)nn2)c(NC2CC3(C2)CC(C(=O)N2CCC4(CCN(c5ccc(Nc6ncc7c(C)c(C(C)=O)c(=O)n(C8CCCC8)c7n6)nc5)C4)C2)C3)n1 (centres unmarked) [CPD-379, 2-((6-(7-(6-((6-acetyl-8-cyclopentyl-5-methyl-7-oxo-7,8-dihydropyrido[2,3-d]pyrimidin-2-yl)amino)pyridin-3-yl)-2,7-diazaspiro[4.4]nonane-2-carbonyl)spiro[3.3]heptan-2-yl)amino)-N-(6-(dimethylamino)pyridazin-3-yl)-6-((methyl-d3)amino)nicotinamide]"
10,> 100,"[2H]C([2H])([2H])Nc1ccc(C(=O)Nc2ccc(N(C)C)nn2)c(NC2CC3(C2)CC(C(=O)N2CCC4(CCN(c5ccc(Nc6ncc7c(C)c(C(C)=O)c(=O)n(C8CCCC8)c7n6)nc5)CC4)C2)C3)n1 (centres unmarked) [CPD-380, 2-((6-(8-(6-((6-acetyl-8-cyclopentyl-5-methyl-7-oxo-7,8-dihydropyrido[2,3-d]pyrimidin-2-yl)amino)pyridin-3-yl)-2,8-diazaspiro[4.5]decane-2-carbonyl)spiro[3.3]heptan-2-yl)amnion)-N-(6-(dimethylamino)pyridazin-3-yl)-6-((methyl-d3)amnion)nicotinamide]"
11,> 100,"CNc1ccc(C(=O)Nc2ccc(N(C)C)nn2)c(NC2CC(C(=O)N3CCC4(CCN(c5ccc(Nc6ncc7c(C)c(C(C)=O)c(=O)n(C8CCCC8)c7n6)nc5)CC4)C3)C2)n1 (centres unmarked) [CPD-381, 2-((3-(8-(6-((6-acetyl-8-cyclopentyl-5-methyl-7-oxo-7,8-dihydropyrido[2,3-d]pyrimidin-2-yl)amino)pyridin-3-yl)-2,8-diazaspiro[4.5]decane-2-carbonyl)cyclobutyl)amino)-N-(6-(dimethylamino)pyridazin-3-yl)-6-(methylamino)nicotinamide]"
12,50 to 100,"CC(=O)c1c(C)c2cnc(Nc3ccc(N4CCC(NCC(=O)NC5CC(Nc6nc(NC(C)C)ccc6C(=O)Nc6ccc(N(C)C)nn6)C5)CC4)cn3)nc2n(C2CCCC2)c1=O (centres unmarked) [CPD-382, 2-((3-(2-((1-(6-((6-acetyl-8-cyclopentyl-5-methyl-7-oxo-7,8-dihydropyrido[2,3-d]pyrimidin-2-yl)amino)pyridin-3-yl)piperidin-4-yl)amino)acetamido)cyclobutyl)amino)-N-(6-(dimethylamino)pyridazin-3-yl)-6-(isopropylamino)nicotinamide]"
13,> 100,"[2H]C([2H])([2H])Nc1ccc(C(=O)Nc2ccc(N(C)C)nn2)c(NC2CC23CCN(C(=O)CC(C)N2CCN(c4ccc(Nc5ncc6c(C)c(C(C)=O)c(=O)n(C7CCCC7)c6n5)nc4)CC2)CC3)n1 (centres unmarked) [CPD-383, 2-((6-(3-(4-(6-((6-acetyl-8-cyclopentyl-5-methyl-7-oxo-7,8-dihydropyrido[2,3-d]pyrimidin-2-yl)amino)pyridin-3-yl)piperazin-1-yl)butanoyl)-6-azaspiro[2.5]octan-1-yl)amino)-N-(6-(dimethylamino)pyridazin-3-yl)-6-((methyl-d3)amino)nicotinamide]"
14,50 to 100,"CNc1ccc(C(=O)Nc2ccc(N(C)C)nn2)c(NC2CCC(C(=O)N3CCC4(CCN(c5ccc(Nc6ncc7c(C)c(C(C)=O)c(=O)n(C8CCCC8)c7n6)nc5)CC4)C3)CC2)n1 (centres unmarked) [CPD-385, 2-((4-(8-(6-((6-acetyl-8-cyclopentyl-5-methyl-7-oxo-7,8-dihydropyrido[2,3-d]pyrimidin-2-yl)amino)pyridin-3-yl)-2,8-diazaspiro[4.5]decane-2-carbonyl)cyclohexyl)amino)-N-(6-(dimethylamino)pyridazin-3-yl)-6-(methylamino)nicotinamide]"
15,> 100,"CC(=O)c1c(C)c2cnc(Nc3ccc(CC4CCN(CC(=O)N5CCC(Nc6nc(NC(C)C)ccc6C(=O)Nc6ccc(N(C)C)nn6)CC5)CC4)cn3)nc2n(C2CCCC2)c1=O [CPD-386, 2-((1-(2-(4-((6-((6-acetyl-8-cyclopentyl-5-methyl-7-oxo-7,8-dihydropyrido[2,3-d]pyrimidin-2-yl)amino)pyridin-3-yl)methyl)piperidin-1-yl)acetyl)piperidin-4-yl)amino)-N-(6-(dimethylamino)pyridazin-3-yl)-6-(isopropylamino)nicotinamide]"
16,50 to 100,"CC(=O)c1c(C)c2cnc(Nc3ccc(N4CCN(CC(=O)NC(C)(C)C5CC(Nc6nc(NC(C)C)ccc6C(=O)Nc6cc(C)n(C)n6)C5)CC4)cn3)nc2n(C2CCCC2)c1=O (centres unmarked) [CPD-387, 2-((3-(2-(2-(4-(6-((6-acetyl-8-cyclopentyl-5-methyl-7-oxo-7,8-dihydropyrido[2,3-d]pyrimidin-2-yl)amino)pyridin-3-yl)piperazin-1-yl)acetamido)propan-2-yl)cyclobutyl)amino)-N-(1,5-dimethyl-1H-pyrazol-3-yl)-6-(isopropylamino)nicotinamide]"
17,> 100,"CNc1ccc(C(=O)Nc2ccc(N(C)C)nn2)c(NC2CC(C(=O)NC3CCC4(CC3)CCN(c3ccc(Nc5ncc6c(C)c(C(C)=O)c(=O)n(C7CCCC7)c6n5)nc3)CC4)C2)n1 (centres unmarked) [CPD-388, 2-((3-((3-(6-((6-acetyl-8-cyclopentyl-5-methyl-7-oxo-7,8-dihydropyrido[2,3-d]pyrimidin-2-yl)amino)pyridin-3-yl)-3-azaspiro[5.5]undecan-9-yl)carbamoyl)cyclobutyl)amino)-N-(6-(dimethylamino)pyridazin-3-yl)-6-(methylamino)nicotinamide]"
